Reference: ChEMBL document CHEMBL1201862, “PubChem BioAssay data set” (2004)
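All cell lines were grown in 96-well plates and treated with compound for 48 hours. GI50 marks 50% less growth.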 Calls of active or inactive are those of the source. No stated cut-off is given here; in the data, active = GI50 up to about 1.1 µM and inactive = higher.

Key:
Test in all cases: DTP human tumour cell line panel, 48 h
BT-549 = test system: BT-549
CAKI-1 = test system: CAKI-1
CCRF-CEM = test system: CCRF-CEM
EKVX = test system: EKVX
HCT-116 = test system: HCT-116
HOP-62 = test system: HOP-62
KM12 = test system: KM12
LOX IMVI = test system: LOX IMVI
MDA-MB-435 = test system: MDA-MB-435
OVCAR-3 = test system: OVCAR-3
OVCAR-5 = test system: OVCAR-5
RXF 393 = test system: RXF 393
SF-268 = test system: SF-268
SK-MEL-28 = test system: SK-MEL-28
SNB-19 = test system: SNB-19
SR = test system: SR
UACC-62 = test system: UACC-62
MDA-N = test system: MDA-N
Malme-3M = test system: Malme-3M

Structure (SMILES) | GI50 (BT-549) | GI50 (CAKI-1) | GI50 (CCRF-CEM) | GI50 (EKVX) | GI50 (HCT-116) | GI50 (HOP-62) | GI50 (KM12) | GI50 (LOX IMVI) | GI50 (MDA-MB-435) | GI50 (OVCAR-3) | GI50 (OVCAR-5) | GI50 (RXF 393) | GI50 (SF-268) | GI50 (SK-MEL-28) | GI50 (SNB-19) | GI50 (SR) | GI50 (UACC-62) | GI50 (MDA-N) | GI50 (Malme-3M)
O=C1Nc2cc([N+](=O)[O-])ccc2C(=O)N2CCC[C@@H]12 | > 100 µM (inactive) | > 100 µM (inactive) | > 100 µM (inactive) | > 100 µM (inactive) | > 100 µM (inactive) | > 100 µM (inactive) | > 100 µM (inactive) | > 100 µM (inactive) | > 100 µM (inactive) | > 100 µM (inactive) | > 100 µM (inactive) | > 100 µM (inactive) | > 100 µM (inactive) | > 100 µM (inactive) | > 100 µM (inactive) | > 100 µM (inactive) | > 100 µM (inactive) | – | –
CN(C)C(=S)N/N=C\C=N/NC(=S)N(C)C | > 100 µM (inactive) | 0.447 µM (active) | – | 0.479 µM (active) | – | 0.129 µM (active) | 0.525 µM (active) | 0.321 µM (active) | 0.953 µM (active) | 0.0295 µM (active) | 31.8 µM (inactive) | 0.277 µM (active) | 0.112 µM (active) | 0.552 µM (active) | 0.731 µM (active) | – | 0.802 µM (active) | 3.29 µM (inactive) | 0.182 µM (active)
COC(=O)C(CCSC)NC(=O)CNC(=O)CSc1nnc(COc2ccc(Cl)cc2)n1-c1ccccc1 (centres undefined) | 16.9 µM (inactive) | – | 7.83 µM (inactive) | – | 16.9 µM (inactive) | 17.1 µM (inactive) | 20.2 µM (inactive) | 11.6 µM (inactive) | 17.9 µM (inactive) | – | 19 µM (inactive) | 18.6 µM (inactive) | 17.1 µM (inactive) | 17.5 µM (inactive) | 69.3 µM (inactive) | – | 16.7 µM (inactive) | 18.6 µM (inactive) | 18 µM (inactive)
COc1ccc(CNc2nc(NCc3ccc(OC)cc3)nc(Nc3ccccc3)n2)cc1 | > 100 µM (inactive) | 3.35 µM (inactive) | – | > 100 µM (inactive) | 11.4 µM (inactive) | > 100 µM (inactive) | 3.37 µM (inactive) | – | 2.22 µM (inactive) | 2.62 µM (inactive) | > 100 µM (inactive) | > 100 µM (inactive) | > 100 µM (inactive) | 4.72 µM (inactive) | 17.8 µM (inactive) | 1.11 µM (active) | 4.14 µM (inactive) | – | 6.35 µM (inactive)
CCC(C=O)P1(=O)OC(C)(C)CN1C(C)(C)C (centres undefined) | > 100 µM (inactive) | > 100 µM (inactive) | – | 91.4 µM (inactive) | 59.8 µM (inactive) | 62.5 µM (inactive) | 24.4 µM (inactive) | > 100 µM (inactive) | 99.5 µM (inactive) | 20.6 µM (inactive) | > 100 µM (inactive) | – | 88.3 µM (inactive) | – | > 100 µM (inactive) | > 100 µM (inactive) | > 100 µM (inactive) | – | 68.1 µM (inactive)
Oc1cccc(/C=N/N=c2/[nH][nH]/c(=N/N=C/c3cccc(O)c3)c3ccccc23)c1 | 18.5 µM (inactive) | 29.1 µM (inactive) | 3.83 µM (inactive) | 18.3 µM (inactive) | 11.5 µM (inactive) | 12.5 µM (inactive) | 25.2 µM (inactive) | 11.7 µM (inactive) | 22.9 µM (inactive) | 13.9 µM (inactive) | 40.1 µM (inactive) | 49.2 µM (inactive) | 26.6 µM (inactive) | 21.8 µM (inactive) | 24.4 µM (inactive) | 2.55 µM (inactive) | 13.5 µM (inactive) | – | 15.5 µM (inactive)
CCN(CC)CCO/N=C1/C=C2CCC3C(CC[C@@]4(C)C3CC[C@]4(C)O)[C@@]2(C)CC1 (some centres undefined) | 11.7 µM (inactive) | 4.52 µM (inactive) | 1.29 µM (inactive) | 6.21 µM (inactive) | 4.21 µM (inactive) | 4.06 µM (inactive) | 5.43 µM (inactive) | 4.1 µM (inactive) | 1.69 µM (inactive) | 2.8 µM (inactive) | 16.5 µM (inactive) | 15.5 µM (inactive) | 8.09 µM (inactive) | – | 11.6 µM (inactive) | – | 2.76 µM (inactive) | 2.49 µM (inactive) | 3.64 µM (inactive)
